The subject of test [1] is U2OS/PD-L1 cells and Jurkat-PD-1-SHP cells. Nature of the test: Src homology region 2 domain-containing phosphatase (SHP) assay. It is filed as cell-based. Particulars: Homo sapiens; U2OS/PD-L1 cells with Jurkat-PD-1-SHP cells, 2 hours. On the procedure:
Example B. Src Homology Region 2 Domain-Containing Phosphatase (SHP) Assay
U2OS/PD-L1 cells (DiscoveRx Corporation) were maintained in McCoy's 5A medium with addition of 10% FBS, 0.25 μg/ml Puromycin. After removing the culture media, the cell medium was replaced with assay medium (RPMI1640 medium with 1% FBS). The U2OS/PD-L1 cells were then added in 384-well black clear bottom assay plate (CELLCOAT® Tissue Culture Plates, Greiner Bio-One) at 5000 cells per well in 20 μL assay medium. Test compounds were prepared by serial dilution in DMSO and 125 nL compound were first transferred to the 384 REMP plate well (Thermofisher) by ECHO liquid handler (Labcyte) followed with addition of 27.5 μL assay medium. 5 μL/well compounds in the assay medium were transferred to the cell plate with 0.05% DMSO in the final assay at 0.5 μM. Jurkat-PD-1-SHP cells (DiscoveRx Corporation) were cultured in RPMI1640 medium supplemented with 10% FBS, 250 μg/ml Hygromycin B, 500 μg/ml G418. After the replacement of culture media with assay medium, 5,000 Jurkat-PD-1-SHP cells in 20 μL were dispensed into each well. The assay plate was incubated at 37° C., 5% CO2 for 2 hours before 2.5 μL PathHunter reagent 1 (DiscoveRx Corporation) were added to each well. The assay plate was shaken for 1 min at 350 rpm in the dark followed with addition of 10 μL PathHunter reagent 2 (DiscoveRx Corporation). Chemiluminescent signal was recorded with TopCount reader (Perkin Elmer) after incubation at room temperature for 1 hour. Wells with DMSO were served as the positive controls and wells containing no cells were used as negative controls. IC50 determination was performed by fitting the curve of percentage of control activity versus the log of the compound concentration using the GraphPad Prism 6.0 software.

Test [2] concerns the target PD-1/PD-L1 (Homo sapiens (Human), UniProt Q9NZQ7). Briefly: Homogeneous Time-Resolved Fluorescence (HTRF) PD-1/PD-L1 binding assay. Particulars: recombinant human PD-1 and PD-L1, 25° C., pH 7.4. On the procedure:
Example A. Homogeneous Time-Resolved Fluorescence (HTRF) PD-1/PD-L1 Binding Assay
The assays were conducted in a standard black 384-well polystyrene plate with a final volume of 20 μL. Inhibitors were first serially diluted in DMSO and then added to the plate wells before the addition of other reaction components. The final concentration of DMSO in the assay was 1%. The assays were carried out at 25° C. in the PBS buffer (pH 7.4) with 0.05% Tween-20 and 0.1% BSA. Recombinant human PD-L1 protein (19-238) with a His-tag at the C-terminus was purchased from AcroBiosystems (PD1-H5229). Recombinant human PD-1 protein (25-167) with Fc tag at the C-terminus was also purchased from AcroBiosystems (PD1-H5257). PD-L1 and PD-1 proteins were diluted in the assay buffer and 10 μL was added to the plate well. Plates were centrifuged and proteins were preincubated with inhibitors for 40 minutes. The incubation was followed by the addition of 10 μL of HTRF detection buffer supplemented with Europium cryptate-labeled anti-human IgG (PerkinElmer-AD0212) specific for Fc and anti-His antibody conjugated to SureLight®-Allophycocyanin (APC, PerkinElmer-AD0059H). After centrifugation, the plate was incubated at 25° C. for 60 min. before reading on a PHERAstar FS plate reader (665 nm/620 nm ratio). Final concentrations in the assay were—3 nM PD1,10 nM PD-L1, 1 nM europium anti-human IgG and 20 nM anti-His-Allophycocyanin. IC50 determination was performed by fitting the curve of percent control activity versus the log of the inhibitor concentration using the GraphPad Prism 5.0 software.

The subject of test [3] is PD-L1 aAPC/CHO-K1 cells and Jurkat-PD-1-NFAT effector cells. Briefly: Nuclear factor of activated T-cells (NFAT) assay. It is filed as cell-based. Particulars: Cricetulus griseus; PD-L1 aAPC/CHO-K1 cells with Jurkat-PD-1-NFAT effector cells, 24 hours. On the procedure: Example C. Nuclear Factor of Activated T-Cells (NFAT) Assay
PD-L1 aAPC/CHO-Klcells (Promega) were maintained in F-12 medium with addition of 10% FBS, 200 μg/ml Hygromycin B, 250 μg/ml Geneticin (G418). Jurkat-PD-1-NFAT effector cells (Promega) were cultured in RPMI 1640 medium supplemented with 10% FBS, 100 μg/ml Hygromycin B, 500 μg/ml G418. The culture media of PD-L1 aAPC/CHO-K1 cells were first replaced with assay medium (RPMI1640 medium with 1% FBS). The PD-L1 aAPC/CHO-K1 cells were then added in a white 384-well white clear bottom assay plate (CELLCOAT® Tissue Culture Plates, Greiner Bio-One) at 8000 per well in 10 μL assay medium. Test compounds were prepared by serial dilution in DMSO and 0.8 μL test compounds in DMSO were first transferred to the 384 REMP plate well (Thermofisher) by PlateMate Plus (Thermofisher) followed with addition of 50 μL plating medium. 5 μL compounds in the assay medium were transferred to the cells with 0.4% DMSO in the final assay at 2 μM. After removing the culture media, 10,000 Jurkat-PD-1-NFAT effector cells in 5 μL assay medium was dispensed into each well. The assay plate was incubated at 37° C., 5% CO2 for 24 hours. After the assay plate was equilibrated to room temp for 15 minutes, 20 µL/well of Bio-Glo™ reagent (Promega) were added. After 8 minutes incubation at room temperature, luminescence was read at with Pherastar microplate reader (BMG Labtech). The fold of induction (FOI) was calculated based on the ratio of luminescence normalized to the DMSO wells within each assay plate. The maximum percentage of induction was reported based on the ratio between the highest FOI of each compound and the maximum FOI of control compound within each assay plate. Wells with DMSO were served as the negative controls and wells containing control compound with the highest FOI were used as positive controls. EC50 determination was performed by fitting the curve of percent control activity versus the log of the compound concentration using the GraphPad Prism 6.0 software.

In test [4] the target is PD-L1 (Homo sapiens (Human), UniProt Q9NZQ7). Nature of the test: PD-L1 whole blood internalization assay. The format is cell-based. Particulars: 1 ng/ml human interferon γ, PD-L1 expression on CD14+ cells, read-out: Whole Blood (24 HR) IC50. On the procedure:
Example D. PD-L1 Whole Blood Internalization Assay
To determine PD-L1 internalization in human whole blood, normal human blood (Biological Specialty Corp, Colmar. Pa.) was incubated in the presence or absence of a concentration range of test compounds and 1 ng/ml human interferon γ (R&D Systems Inc. Minn. […] Blood was then stained with PD-L1 (MIH1, eBioscience; or BD Biosciences San Jose, Calif.), CD14 (Life Technologies, Carlsbad, Calif.) for 30 minutes in the dark at room temperature. Whole Blood/red cells were lysed/fixed (lysis buffer BD Biosciences) for 5 minutes at 37° C. in the dark and then centrifuged at 1600 RPM for 5 minutes. Cells were resuspended in Stain Buffer (BD Bioscience, San Jose, Calif.) and transferred into 96 well round bottom plates (Corning). Cells were gated on CD14+(BD Biosciences) and PD-L1 expression determined by mean fluorescence intensity (MFI) (BD LSRFortessa™ X-20). IC50 determination was performed by fitting the curve of compound percent inhibition versus the log of the compound concentration using the GraphPad Prism 7.0 software.

PD-1/PD-L1, sequence (Q9NZQ7 19-238): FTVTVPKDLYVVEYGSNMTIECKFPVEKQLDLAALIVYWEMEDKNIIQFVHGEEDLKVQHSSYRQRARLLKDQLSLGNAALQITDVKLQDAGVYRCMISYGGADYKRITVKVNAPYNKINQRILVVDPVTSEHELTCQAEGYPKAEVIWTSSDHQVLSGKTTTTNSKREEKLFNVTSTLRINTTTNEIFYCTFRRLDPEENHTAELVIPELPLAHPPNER
PD-L1, sequence (Q9NZQ7 19-290): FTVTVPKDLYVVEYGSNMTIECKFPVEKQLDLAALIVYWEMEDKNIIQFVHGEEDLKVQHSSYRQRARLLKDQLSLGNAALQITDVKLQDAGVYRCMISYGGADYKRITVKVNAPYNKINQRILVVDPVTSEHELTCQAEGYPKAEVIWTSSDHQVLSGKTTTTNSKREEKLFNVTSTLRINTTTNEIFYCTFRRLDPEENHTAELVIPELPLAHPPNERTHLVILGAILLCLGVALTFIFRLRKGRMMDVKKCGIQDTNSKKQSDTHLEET

Turning to `Cc1c(Nc2nc(C(F)F)nc3cc(CN4CC[C@@](C)(O)C4)cnc23)cccc1-c1cccc(-c2nc3cc(CN4CCC(C(=O)O)CC4)cc(C#N)c3o2)c1C` [Example 30, (R)-1-((7-cyano-2-(3′-(2-(difluoromethyl)-7-((3-hydroxy-3-methylpyrrolidin-1-yl)methyl)pyrido[3,2-d]pyrimidin-4-ylamino)-2,2′-dimethylbiphenyl-3-yl)benzo[d]oxazol-5-yl)methyl)piperidine-4-carboxylic Acid], the IC50 was at most 10 nM in test [1], at most 10 nM in test [2] and 10 to 100 nM in test [4]. The half-maximal effective concentration (EC50) in test [3] is at most 10 nM.
Take `Cc1c(Nc2nc(C(F)(F)F)nc3cc(CN4CC[C@@H](O)C4)cnc23)cccc1-c1cccc(-c2nc3cc(CN4CC[C@@](C)(C(=O)O)C4)cc(C#N)c3o2)c1C` [Example 21, (R)-1-((7-cyano-2-(3′-(7-(((R)-3-hydroxypyrrolidin-1-yl)methyl)-2-(trifluoromethyl)pyrido[3,2-d]pyrimidin-4-ylamino)-2,2′-dimethylbiphenyl-3-yl)benzo[d]oxazol-5-yl)methyl)-3-methylpyrrolidine-3-carboxylic Acid]: the values for the IC50 in test [1] and in test [4] were at most 10 nM and 10 to 100 nM, respectively. This compound also came in with a concentration giving a half-maximal response (EC50) in test [3] of 10 to 100 nM.
With `Cc1c(Nc2nc(C(F)(F)F)nc3cc(CN4CC[C@@H](O)C4)cnc23)cccc1-c1cccc(-c2nc3cc(CN4CC[C@@H](C(=O)O)C4)cc(C#N)c3o2)c1C` [Example 20, (R)-1-((7-cyano-2-(3′-(7-(((R)-3-hydroxypyrrolidin-1-yl)methyl)-2-(trifluoromethyl)pyrido[3,2-d]pyrimidin-4-ylamino)-2,2′-dimethylbiphenyl-3-yl)benzo[d]oxazol-5-yl)methyl)pyrrolidine-3-carboxylic Acid], the half-maximal inhibitory concentration (IC50) in test [1] is at most 10 nM; in test [4], 10 to 100 nM. The same compound showed an EC50 in test [3] of 10 to 100 nM.
For `Cc1nc(Nc2cccc(-c3cccc(-c4nc5cc(CN6CC[C@@](C)(C(=O)O)C6)cc(C#N)c5o4)c3C)c2C)c2ncc(CNC[C@H](C)O)cc2n1` [Example 15, (R)-1-((7-cyano-2-(3′-(7-(((S)-2-hydroxypropylamino)methyl)-2-methylpyrido[3,2-d]pyrimidin-4-ylamino)-2,2′-dimethylbiphenyl-3-yl)benzo[d]oxazol-5-yl)methyl)-3-methylpyrrolidine-3-carboxylic Acid], the concentration for half-maximal inhibition (IC50) in test [1] and in test [2] was at most 10 nM each time. Further, in test [3], the half-maximal effective concentration (EC50) is 10 to 100 nM.
On to `Cc1nc(Nc2cccc(-c3cccc(-c4nc5cc(CN6CC[C@@H](C(=O)O)C6)cc(C#N)c5o4)c3C)c2C)c2ncc(CNC[C@H](C)O)cc2n1` [Example 10, (R)-1-((7-cyano-2-(3′-(7-(((S)-2-hydroxypropylamino)methyl)-2-methylpyrido[3,2-d]pyrimidin-4-ylamino)-2,2′-dimethylbiphenyl-3-yl)benzo[d]oxazol-5-yl)methyl)pyrrolidine-3-carboxylic Acid], for which the IC50 in test [1] and in test [2] was at most 10 nM in each case. In addition, the EC50 in test [3] was in the range of 10 to 100 nM.
On to `Cc1nc(Nc2cccc(-c3cccc(-c4nc5cc(CN6CC[C@@H](C(=O)O)C6)cc(C#N)c5o4)c3C)c2C)c2ncc(CN[C@@H](C)CO)cc2n1` [Example 9, (R)-1-((7-cyano-2-(3′-(7-(((S)-1-hydroxypropan-2-ylamino)methyl)-2-methylpyrido[3,2-d]pyrimidin-4-ylamino)-2,2′-dimethylbiphenyl-3-yl)benzo[d]oxazol-5-yl)methyl)pyrrolidine-3-carboxylic Acid], for which the 50% inhibitory concentration (IC50) in test [1] and in test [2] was at most 10 nM in each case. This compound also gave an EC50 in test [3] of 10 to 100 nM.
With `Cc1c(Nc2nc(C(F)(F)F)nc3cc(CN4CC[C@@H](O)C4)cnc23)cccc1-c1cccc(-c2nc3cc(CN4CCC(C(=O)O)CC4)cc(C#N)c3o2)c1C` [Example 19, (R)-1-((7-cyano-2-(3′-(7-((3-hydroxypyrrolidin-1-yl)methyl)-2-(trifluoromethyl)pyrido[3,2-d]pyrimidin-4-ylamino)-2,2′-dimethylbiphenyl-3-yl)benzo[d]oxazol-5-yl)methyl)piperidine-4-carboxylic Acid], the IC50 is at most 10 nM in test [1] and 10 to 100 nM in test [4]. The compound further yielded an EC50 in test [3] of 10 to 100 nM.
With `Cc1cc2cc(CN3CC[C@@H](O)C3)cnc2c(Nc2cccc(-c3cccc(-c4nc5cc(CN6CC[C@@H](C(=O)O)C6)cc(C#N)c5o4)c3C)c2C)n1` [Example 33, (R)-1-((7-cyano-2-(3′-(3-(((R)-3-hydroxypyrrolidin-1-yl)methyl)-6-methyl-1,7-naphthyridin-8-ylamino)-2,2′-dimethylbiphenyl-3-yl)benzo[d]oxazol-5-yl)methyl)pyrrolidine-3-carboxylic Acid], the values for the half-inhibitory concentration (IC50) in test [1] and in test [4] were at most 10 nM and 10 to 100 nM, respectively. In test [3], this compound yielded an EC50 of at most 10 nM.

For the origin of these results see patent US10669271B2, “Heterocyclic compounds as immunomodulators” (Incyte Corporation, priority 2018, dated 2020).
